Here are results for six compounds from paper PMC10709440, “High-throughput ligand profile characterization in novel cell lines expressing seven heterologous insect olfactory receptors for the detection of volatile plant biomarkers” (Scientific Reports, 2023).

Where two headings read alike, the source gives them in different places.

Experiment [1] concerns the target T1, Drosophila OR10a (Drosophila melanogaster, UniProt Q9VYZ1).
T1 construct: expressed in transfected cells
T1 sequence (Q9VYZ1 1-406): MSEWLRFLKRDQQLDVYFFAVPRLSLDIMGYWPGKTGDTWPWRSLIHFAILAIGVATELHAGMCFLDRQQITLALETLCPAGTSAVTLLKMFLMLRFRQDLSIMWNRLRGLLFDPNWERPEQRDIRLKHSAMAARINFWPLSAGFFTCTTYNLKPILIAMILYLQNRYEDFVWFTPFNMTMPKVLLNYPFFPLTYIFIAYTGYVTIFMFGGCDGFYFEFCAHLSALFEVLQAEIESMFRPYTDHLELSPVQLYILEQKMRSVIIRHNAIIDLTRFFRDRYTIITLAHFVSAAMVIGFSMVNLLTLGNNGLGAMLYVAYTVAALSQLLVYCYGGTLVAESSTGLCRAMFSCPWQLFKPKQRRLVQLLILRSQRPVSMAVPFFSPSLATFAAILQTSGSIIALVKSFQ
T1 sequence (Q9VNB5 1-486 partner): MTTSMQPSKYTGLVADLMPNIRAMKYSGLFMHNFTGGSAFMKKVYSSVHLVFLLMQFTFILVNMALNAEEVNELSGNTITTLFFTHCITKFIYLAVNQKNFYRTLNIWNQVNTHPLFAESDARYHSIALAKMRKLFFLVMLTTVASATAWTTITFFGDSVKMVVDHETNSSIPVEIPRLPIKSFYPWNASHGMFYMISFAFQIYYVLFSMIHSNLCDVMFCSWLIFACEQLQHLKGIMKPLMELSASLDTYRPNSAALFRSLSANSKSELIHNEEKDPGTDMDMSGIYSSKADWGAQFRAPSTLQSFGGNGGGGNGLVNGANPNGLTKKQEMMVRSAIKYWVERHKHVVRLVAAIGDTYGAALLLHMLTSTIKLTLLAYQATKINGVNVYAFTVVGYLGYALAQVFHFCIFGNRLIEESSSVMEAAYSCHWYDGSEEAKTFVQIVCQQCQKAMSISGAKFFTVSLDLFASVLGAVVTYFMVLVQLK
As to the kind of experiment: Calcium ion fluorescence (GCaMP6) assay, OR10a stable HEK293 cell line. The class given is cell-based. In short, it runs like this:
(§1)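 Responses are VUAA1-normalized ΔF: each VOC-evoked calcium signal, (FMAX−F0)/F0 over 30 s after injection, divided by the same line's mean 50 µM VUAA1 response. Cells were doxycycline-induced HEK293 with GCaMP6 and the cognate Drosophila OR, in HEPES buffer pH 7.3; ligands tested 0.01–100 μM.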

The target of experiment [2] is T2, Drosophila OR47a (Drosophila melanogaster, UniProt P81921).
T2 construct: expressed in transfected cells
T2 sequence (P81921 1-385): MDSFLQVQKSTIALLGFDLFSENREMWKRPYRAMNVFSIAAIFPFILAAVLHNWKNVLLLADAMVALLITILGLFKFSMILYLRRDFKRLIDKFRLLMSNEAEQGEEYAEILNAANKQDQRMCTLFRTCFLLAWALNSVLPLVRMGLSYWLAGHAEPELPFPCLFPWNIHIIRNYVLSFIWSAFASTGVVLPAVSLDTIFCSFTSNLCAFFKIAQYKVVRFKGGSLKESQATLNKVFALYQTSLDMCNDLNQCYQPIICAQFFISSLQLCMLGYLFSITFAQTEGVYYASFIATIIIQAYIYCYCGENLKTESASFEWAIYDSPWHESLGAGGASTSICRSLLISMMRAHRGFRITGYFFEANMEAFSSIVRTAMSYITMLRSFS
T2 sequence (Q9VNB5 1-486 partner): T1 sequence (Q9VNB5 1-486 partner)
As to the kind of experiment: Calcium ion fluorescence (GCaMP6) assay, OR47a stable HEK293 cell line. The class given is cell-based. The note with it: for Average response: mean of biological replicates. Summed up: as §1

The mark [3] stands for this setting: HEK293, read-out: OR10a Average response (VUAA1-normalized), 1 μM VOC, 50 μM VUAA1 = 1, responses not exceeding 0.05 considered 0.
Where [4] appears, read: HEK293, read-out: OR10a Average response (VUAA1-normalized), 10 μM VOC, 50 μM VUAA1 = 1, responses not exceeding 0.05 considered 0.
Setting [5] is: HEK293, read-out: OR10a Average response (VUAA1-normalized), 100 μM VOC, 50 μM VUAA1 = 1, responses not exceeding 0.05 considered 0.
[6] abbreviates: HEK293, read-out: OR10a response (VUAA1-normalized response), VOC concentration 1 μM.
The mark [7] stands for this setting: HEK293, read-out: OR10a response (VUAA1-normalized response), VOC concentration 10 μM.
The mark [8] stands for this setting: HEK293, read-out: OR10a response (VUAA1-normalized response), VOC concentration 100 μM.
Where [9] appears, read: ligand concentration 1 (unit not given), threshold 0.05, below shown as 0.
[10] abbreviates: ligand concentration 10 (unit not given), threshold 0.05, below shown as 0.
The mark [11] stands for this setting: ligand concentration 100 (unit not given), threshold 0.05, below shown as 0.
Setting [12] is: HEK293, read-out: OR47a Average response (VUAA1-normalized).
The mark [13] stands for this setting: HEK293, read-out: OR47a response (VUAA1-normalized response).
The mark [14] stands for this setting: OR47a cell line, odorant cc. 1 µM.
Where [15] appears, read: OR47a cell line, odorant cc. 10 µM.
Setting [16] is: OR47a cell line, odorant cc. 100 µM.
The mark [17] stands for this setting: HEK293, 1 μM VOC, 50 μM VUAA1 = 1, responses not exceeding 0.05 considered 0, read-out: OR10a Average response (VUAA1-normalized).
Setting [18] is: HEK293, 10 μM VOC, 50 μM VUAA1 = 1, responses not exceeding 0.05 considered 0, read-out: OR10a Average response (VUAA1-normalized).
[19] abbreviates: HEK293, 100 μM VOC, 50 μM VUAA1 = 1, responses not exceeding 0.05 considered 0, read-out: OR10a Average response (VUAA1-normalized).
The mark [20] stands for this setting: concentration 1, normalized fluorescence change, values below 0.05 threshold given as 0.
Where [21] appears, read: concentration 10, normalized fluorescence change, values below 0.05 threshold given as 0.
The mark [22] stands for this setting: concentration 100, normalized fluorescence change, values below 0.05 threshold given as 0.
Setting [23] is: 100 µM, OR10a clone G5, single plate 2019.12.05.
Where [24] appears, read: ligand concentration 10 (unit not given), 0.05 threshold, values below shown as 0.
The mark [25] stands for this setting: ligand concentration 100 (unit not given), 0.05 threshold, values below shown as 0.

As for `CC(=O)OCC(C)C` [isobutyl acetate], the activation at 1 µM in experiment [1] (setting [3]) worked out at 7%; in experiment [1] (setting [6]), 6.57%; in experiment [2] (setting [12]), 19%; in experiment [2] (setting [13]) it was 19%. Besides, the activation at 10 µM in experiment [1] (setting [4]) was 5%; in experiment [1] (setting [7]), 0%; in experiment [2] (setting [12]) it was 15%; in experiment [2] (setting [13]), 15%. In addition, the activation at 100 µM was 18% in experiment [1] (setting [5]), 18% in experiment [1] (setting [8]), 65% in experiment [2] (setting [12]) and 65% in experiment [2] (setting [13]). For the same compound, the “DF norm AVERAGE OR10a” value is listed as 0.06574 in experiment [1] (setting [9]), 0 in experiment [1] (setting [10]) and 0.1821 in experiment [1] (setting [11]). In addition, the Average response turned out to be 0.19 in experiment [2] (setting [14]), 0.15 in experiment [2] (setting [15]) and 0.65 in experiment [2] (setting [16]). The “DF norm AVERAGE OR47a” value in experiment [2] (setting [9]) is reported as 0.1884; in experiment [2] (setting [10]), 0.1518; in experiment [2] (setting [11]) it was 0.646.

As for `CCCCCC(C)O` (stereo not shown) [2-heptanol], the activation at 1 µM is 3.76% in experiment [1] (setting [17]), 0% in experiment [1] (setting [6]) and 0% in experiment [2] (setting [13]). Further, the activation at 10 µM in experiment [1] (setting [18]) was determined as 7.54%; in experiment [1] (setting [7]), 7.54%; in experiment [2] (setting [13]) it was 6%. The activation at 100 µM in experiment [1] (setting [19]), in experiment [1] (setting [8]) and in experiment [2] (setting [13]) was 0% each time. The figures for the Average response in experiment [2] (setting [14]), in experiment [2] (setting [15]) and in experiment [2] (setting [16]) were 0.00, 0.06 and 0.00, respectively. Further, the “DF norm AVERAGE OR47a” value stood at 0 in experiment [2] (setting [20]), 0.05999 in experiment [2] (setting [21]) and 0 in experiment [2] (setting [22]).

On to `C=C1CC/C=C(\C)CC[C@@H]2[C@@H]1CC2(C)C` [(-)-trans-caryophyllene], for which the activation at 1 µM in experiment [1] (setting [17]) was 14%; in experiment [1] (setting [6]) it was 14%; in experiment [2] (setting [13]), 0%. The results for the activation at 10 µM in experiment [1] (setting [18]), in experiment [1] (setting [7]) and in experiment [2] (setting [13]) were 20%, 20% and 0%, respectively. For the same compound, the figures for the activation at 100 µM in experiment [1] (setting [19]), in experiment [1] (setting [8]) and in experiment [2] (setting [13]) were 6.61%, 6.61% and 0%, respectively. The results for the Average response in experiment [2] (setting [14]), in experiment [2] (setting [15]) and in experiment [2] (setting [16]) were 0.0166, 0.0326 and 0.00, respectively. Further, the “DF norm AVERAGE OR47a” value in experiment [2] (setting [20]), in experiment [2] (setting [21]) and in experiment [2] (setting [22]) was 0 in each case.

As to `Cc1cccc(C)c1` [m-xylene], the activation at 1 µM in experiment [1] (setting [3]) was determined as 0%. Moreover, in experiment [1] (setting [4]), the activation at 10 µM stood at 0%. In addition, the activation at 100 µM in experiment [1] (setting [5]) was 2%. Further, in experiment [1] (OR10a cell line, VOC concentration 1 μM), the “OR10a response (VUAA1-normalized) at 1 μM” value is reported as 0.00. Besides, in experiment [1] (OR10a cell line, VOC concentration 10 μM), the “OR10a response (VUAA1-normalized) at 10 μM” value came to 0.00. Besides, in experiment [1] (OR10a cell line, VOC concentration 100 μM), the “OR10a response (VUAA1-normalized) at 100 μM” value turned out to be 0.00. The “DF norm AVERAGE OR10a” value in experiment [1] (setting [9]), in experiment [1] (setting [10]) and in experiment [1] (setting [11]) was 0 each time. The “OR47a response (VUAA1-normalized) at 1 μM” value in experiment [2] (OR47a cell line, VOC concentration 1 μM) is on record as 0.00. Further, the “OR47a response (VUAA1-normalized) at 10 μM” value in experiment [2] (OR47a cell line, VOC concentration 10 μM) is reported as 0.00. The “OR47a response (VUAA1-normalized) at 100 μM” value in experiment [2] (OR47a cell line, VOC concentration 100 μM) stood at 0.00. Moreover, the Average response in experiment [2] (setting [14]), in experiment [2] (setting [15]) and in experiment [2] (setting [16]) was 0.00 throughout. Moreover, the “DF norm AVERAGE OR47a” value in experiment [2] (setting [9]), in experiment [2] (setting [10]) and in experiment [2] (setting [11]) was 0 each time.

For `CC/C=C\CCOC(C)=O` [z3-hexenyl acetate], the “DF norm, all technical replicates” value in experiment [1] (setting [23]) came out at 0. The “DF norm, outlier technical replicates removed” value in experiment [1] (setting [23]) is 0. Besides, the “DF, outlier technical replicates removed” value in experiment [1] (setting [23]) amounted to 0. In addition, in experiment [1] (100 µM, OR10a clone G5, single plate 2019.12.05, xc+0.1%DMSO), the “DF, all technical replicates” value is on record as 0. Besides, the results for the activation at 1 µM in experiment [1] (setting [17]) and in experiment [2] (setting [12]) were 14% and 35%, respectively. The activation at 10 µM stood at 0% in experiment [1] (setting [18]) and 67% in experiment [2] (setting [12]). Besides, the results for the activation at 100 µM in experiment [1] (setting [19]) and in experiment [2] (setting [12]) were 0% and 76%, respectively. In addition, the “DF norm AVERAGE OR10a” value is 0.1361 in experiment [1] (ligand concentration 1 (unit not given), […]); 0 in experiment [1] (setting [24]); 0 in experiment [1] (setting [25]). Moreover, the Average response in experiment [2] (setting [14]) is given as 0.35; in experiment [2] (setting [15]) it was 0.67; in experiment [2] (setting [16]), 0.76. The “DF norm AVERAGE OR47a” value in experiment [2] (ligand concentration 1 (unit not given), 0.05 threshold, values below shown as 0) was determined as 0.3542; in experiment [2] (setting [24]), 0.669; in experiment [2] (setting [25]) it was 0.7586.

For `CC1=CC[C@@H](C(C)(C)O)CC1` [alpha-terpineol], the activation at 1 µM in experiment [1] (setting [3]) is 3.64%; in experiment [1] (setting [6]) it was 0%; in experiment [2] (setting [13]), 0%. Moreover, the activation at 10 µM in experiment [1] (setting [4]) worked out at 2.71%; in experiment [1] (setting [7]), 0%; in experiment [2] (setting [13]), 0%. Besides, the activation at 100 µM in experiment [1] (setting [5]), in experiment [1] (setting [8]) and in experiment [2] (setting [13]) was 0% throughout. Besides, the “DF norm AVERAGE OR10a” value in experiment [1] (setting [9]), in experiment [1] (setting [10]) and in experiment [1] (setting [11]) was 0 throughout. The Average response in experiment [2] (setting [14]), in experiment [2] (setting [15]) and in experiment [2] (setting [16]) was 0.00 each time. The “DF norm AVERAGE OR47a” value in experiment [2] (setting [9]), in experiment [2] (setting [10]) and in experiment [2] (setting [11]) was 0 throughout.
